{
  "source": "patent US4683242A",
  "about": "“Transdermal treatment for pain and inflammation with 2-amino-3-aroylbenzeneacetic acids, salts and esters” (A. H. Robins Company, Incorporated, priority 1985, dated 1987)",
  "key": {"[1]": {"system": "Carrageenan-Induced Rat-Paw Edema", "assay": "Carrageenan Induced Rat-Paw Edema, dermal application (antiinflammatory)", "type": "in vivo", "details": "for Measurement of Edema at 3 hr.: 4 hr pretreatment; for Activity applied dermally compared with orally for a given dose: dermal vs oral, Formula B cream (pH=3.5) for Example 74", "protocol": "On the day prior to the test, an area of about 1\"×1\" of the lower back just above the tail of each of the rats was shaved and depilated with the commercially available hair removal preparation--Nair®. The rats were returned to the vivarium for feed and water.\nThe following day each rat was weighed and the volume of the left hind limb recorded. The rats were randomized into groups. Creams were applied in the following manner: 0.2 ml of the cream vehicle (control--no active agent) or formulation containing active ingredient was rubbed thoroughly onto the shaved depilated area of the rat's back for 10-15 seconds. The rats were immediately placed into plexiglass observation cylinders to restrict movement so as to prohibit accidental oral ingestion of the cream. The rats were then placed in a quiet room for 4 hr. Four hours after dosing, 0.1 ml of 1% carrageenan was injected into the left hind limb of each rat. The rats were returned to their observation cylinders and placed in the quiet room for an additional 3 hr time, after which the volume of the left hind limb was determined. The degree of edema was determined by subtracting limb volume at 0 time from the volume determined 3 hr after carrageenan injection. Two tail Dunnett's t-tests were used to compare the edema of the treated groups with the appropriate controls (Dunnet, C. W. (1955); J. AM. STAT. ASSOC. 50: 1096-1121).\nSeveral compounds of Formula I were mixed with the creams as prepared above so as to obtain cream containing 3.2 weight percent of each compound based on the weight of free acid or the ester. Rats in groups of 6 (randomized) were each treated with 0.2 ml of the cream containing the compound using the foregoing Carrageenan Induced Rat-Paw Edema test. The control rats were treated with cream having no test compound.\nIn addition, one preferred compound was tested further using the foregoing Carrageenan-Induced Rat-Paw Edema test at various concentrations in the cream of Formula B (pH=3.5)."}, "[2]": {"system": "Acetylcholine Induced Abdominal Constriction", "assay": "Acetylcholine Induced Abdominal Constriction Test in Mice, dermal application (analgetic)", "type": "in vivo, mouse", "details": "Formula A cream pH = 7.0, 4 hr pretreatment", "protocol": "Active agent was incorporated into the cream described under Formual A above (pH=7.0) at various concentrations calculated on a free acid basis.\nMice were prepared for the test by shaving an area measuring 3/4\"×3/4\" on their backs behind their heads and then depilating with Nair®, a cosmetic hair remover. The mice were given free access to feed and water prior to the experiment. On the following day the mice were weighed and fitted with a cardboard collar (13/4\"×13/4\" with a 1/2\" hole in the center) around the neck to prevent ingestion of applied compounds. The mice were randomized into groups of 10 using random tables generated by the IBM scrambler. A table of random permutations of blocks of order 3 was used to select the control and treated groups. The randomized mice were fed and placed in individual observation cages 1 hr prior to application of 50 microliters of the cream (by rubbing onto the skin for approximately 10 seconds).\nThe mice acting as controls were treated with cream having no test compound in it. Four hours after the application of the cream to the depilated area, acetylcholine bromide was injected intraperitoneally at 6 mg/kg (10 ml/kg in saline) with a plastic syringe with a 5/8 inch, 25-gauge disposable needle. Each mouse was immediately placed under an inverted 1 liter beaker and observed for 3 minutes for the presence of abdominal constriction. If no abdominal constriction was observed during this period, the response was considered blocked. ED50 and 95% confidence limits were determined by computer using a probit analysis method. Ten mice were used at each concentration, including controls.\nThe following results in Table 5 were obtained using the foregoing method using the cream of Formula A (pH=7.0) as described above having mixed therein the compound of Example 74 in comparison to controls wherein no test compound was present."}, "[3]": {"details": "quotation from Remington's, 16th Ed., page 1523; cited from earlier work"}, "[4]": {"details": "Table 3, Formula A cream, pH = 7.0, 0.2 ml, 3.2% by weight (free acid basis or ester), dermal"}, "[5]": {"details": "Table 3, Formula A cream, pH = 7.0, 0.2 ml, 3.2% by weight, dermal, p = <0.05"}, "[6]": {"details": "Table 4, first series, Formula B pH 3.5, 0.032 % (W/W), 0.37 mg/kg dermal"}, "[7]": {"details": "Table 4, second series, Formula B pH 3.5, 0.01 % (W/W), 0.10 mg/kg dermal"}, "[8]": {"details": "Table 4, second series, Formula B pH 3.5, 0.032 % (W/W), 0.32 mg/kg dermal"}, "[9]": {"details": "Table 4, second series, Formula B pH 3.5, 0.10 % (W/W), 0.94 mg/kg dermal"}},
  "note": "Counter-ions that a name gives are not always drawn.",
  "data": [
    {"smiles": "CCOC(=O)Cc1cccc(C(=O)c2ccccc2)c1N", "note": "[Example 5, 2-Amino-3-benzoylbenzeneacetic acid, ethyl ester]", "values": [
      {"measurement": "Measurement of Edema at 3 hr.", "setting": "[1]; [4]", "result": "0.27 ± 0.18 ml ± S.D."},
      {"measurement": "% Change (edema vs control)", "setting": "[1]; [5]", "result": -71, "unit": "%"}
    ]},
    {"smiles": "CSc1ccc(C(=O)c2cc(F)cc(CC(=O)O)c2N)cc1", "note": "[Example 19, 2-Amino-3-[(4-methylthio)benzoyl]-5-fluorobenzeneacetic acid, sodium salt]", "values": [
      {"measurement": "Measurement of Edema at 3 hr.", "setting": "[1]; [4]", "result": "0.55 ± 0.14 ml ± S.D."},
      {"measurement": "% Change (edema vs control)", "setting": "[1]; [5]", "result": -41, "unit": "%"}
    ]},
    {"smiles": "Cc1ccc(C(=O)c2cc(Cl)cc(CC(=O)O)c2N)cc1", "note": "[Example 55, 2-Amino-3-(4-methylbenzoyl)-5-chlorobenzeneacetic acid, sodium salt, hydrate [4:3]]", "values": [
      {"measurement": "Measurement of Edema at 3 hr.", "setting": "[1]; [4]", "result": "0.33 ± 0.20 ml ± S.D."},
      {"measurement": "% Change (edema vs control)", "setting": "[1]; [5]", "result": -64, "unit": "%"}
    ]},
    {"smiles": "Nc1c(CC(=O)O)cccc1C(=O)c1ccc(I)cc1", "note": "[Example 57, 2-Amino-3-(4-iodobenzoyl)benzeneacetic acid, sodium salt, hydrate [4:1]]", "values": [
      {"measurement": "Measurement of Edema at 3 hr.", "setting": "[1]; [4]", "result": "0.40 ± 0.14 ml ± S.D."},
      {"measurement": "% Change (edema vs control)", "setting": "[1]; [5]", "result": -57, "unit": "%"}
    ]},
    {"smiles": "CCOC(=O)Cc1cccc(C(=O)c2ccc(Br)cc2)c1N", "note": "[Example 69, 2-Amino-3-(4-bromobenzoyl)benzeneacetic acid, ethyl ester]", "values": [
      {"measurement": "Measurement of Edema at 3 hr.", "setting": "[1]; [4]", "result": "0.50 ± 0.20 ml ± S.D."},
      {"measurement": "% Change (edema vs control)", "setting": "[1]; [5]", "result": -46, "unit": "%"}
    ]},
    {"smiles": "Nc1c(CC(=O)O)cccc1C(=O)c1ccc(Br)cc1", "note": "[Example 74, 2-Amino-3-(4-bromobenzoyl)benzeneacetic acid, sodium salt, sesquihydrate]", "values": [
      {"measurement": "Measurement of Edema at 3 hr.", "setting": "[1]; Table 3, Formula B cream, pH = 3.5, 0.2 ml, 3.2% by weight (free acid basis), dermal", "result": "0.48 ± 0.17 ml ± S.D."},
      {"measurement": "Measurement of Edema at 3 hr.", "setting": "[1]; Table 3, Formula B cream, pH = 3.5, 0.2 ml, 3.2% by weight (free acid basis), dermal, sodium salt, sesquihydrate", "result": "0.38 ± 0.18 ml ± S.D."},
      {"measurement": "3 Hr. Edema", "setting": "[1]; [6]", "result": "0.73 ± 0.33 ml ± S.D."},
      {"measurement": "% Change (edema vs control)", "setting": "[1]; [6]", "result": -26, "unit": "%"},
      {"measurement": "% Change (edema vs control)", "setting": "[1]; Table 4, first series, Formula B pH 3.5, 0.10 % (W/W), 1.1 mg/kg dermal", "result": -57, "unit": "%"},
      {"measurement": "3 Hr. Edema", "setting": "[1]; Table 4, first series, Formula B pH 3.5, 0.10 % (W/W), 1.1 mg/kg dermal, p < 0.05", "result": "0.42 ± 0.21 ml ± S.D."},
      {"measurement": "% Change (edema vs control)", "setting": "[1]; Table 4, first series, Formula B pH 3.5, 0.32 % (W/W), 3.7 mg/kg dermal", "result": -62, "unit": "%"},
      {"measurement": "3 Hr. Edema", "setting": "[1]; Table 4, first series, Formula B pH 3.5, 0.32 % (W/W), 3.7 mg/kg dermal, p < 0.05", "result": "0.37 ± 0.19 ml ± S.D."},
      {"measurement": "% Change (edema vs control)", "setting": "[1]; Table 4, first series, Formula B pH 3.5, 1.0 % (W/W), 11.9 mg/kg dermal", "result": -57, "unit": "%"},
      {"measurement": "3 Hr. Edema", "setting": "[1]; Table 4, first series, Formula B pH 3.5, 1.0 % (W/W), 11.9 mg/kg dermal, p < 0.05", "result": "0.42 ± 0.10 ml ± S.D."},
      {"measurement": "% Change (edema vs control)", "setting": "[1]; Table 4, first series, Formula B pH 3.5, 3.16 % (W/W), 36.5 mg/kg dermal", "result": -61, "unit": "%"},
      {"measurement": "3 Hr. Edema", "setting": "[1]; Table 4, first series, Formula B pH 3.5, 3.16 % (W/W), 36.5 mg/kg dermal, p < 0.05", "result": "0.38 ± 0.18 ml ± S.D."},
      {"measurement": "3 Hr. Edema", "setting": "[1]; [7]", "result": "0.88 ± 0.33 ml ± S.D."},
      {"measurement": "% Change (edema vs control)", "setting": "[1]; [7]", "result": "+3%"},
      {"measurement": "3 Hr. Edema", "setting": "[1]; [8]", "result": "1.05 ± 0.22 ml ± S.D."},
      {"measurement": "% Change (edema vs control)", "setting": "[1]; [8]", "result": "+22%"},
      {"measurement": "3 Hr. Edema", "setting": "[1]; [9]", "result": "0.55 ± 0.20 ml ± S.D."},
      {"measurement": "% Change (edema vs control)", "setting": "[1]; [9]", "result": -36, "unit": "%"},
      {"measurement": "% Change (edema vs control)", "setting": "[1]; Table 4, second series, Formula B pH 3.5, 0.32 % (W/W), 3.0 mg/kg dermal", "result": -52, "unit": "%"},
      {"measurement": "3 Hr. Edema", "setting": "[1]; Table 4, second series, Formula B pH 3.5, 0.32 % (W/W), 3.0 mg/kg dermal, p < 0.05", "result": "0.42 ± 0.15 ml ± S.D."},
      {"measurement": "% Change (edema vs control)", "setting": "[1]; Table 4, second series, Formula B pH 3.5, 1.0 % (W/W), 10.3 mg/kg dermal", "result": -57, "unit": "%"},
      {"measurement": "3 Hr. Edema", "setting": "[1]; Table 4, second series, Formula B pH 3.5, 1.0 % (W/W), 10.3 mg/kg dermal, p < 0.05", "result": "0.37 ± 0.05 ml ± S.D."},
      {"measurement": "% Change (edema vs control)", "setting": "[1]; Table 4, second series, Formula B pH 3.5, 3.16 % (W/W), 31.5 mg/kg dermal", "result": -44, "unit": "%"},
      {"measurement": "3 Hr. Edema", "setting": "[1]; Table 4, second series, Formula B pH 3.5, 3.16 % (W/W), 31.5 mg/kg dermal, p < 0.05", "result": "0.48 ± 0.17 ml ± S.D."},
      {"measurement": "Activity against edema compared with indomethacin applied dermally or orally", "setting": "[1]; comparative study, Example 74 applied dermally to rats", "result": "more active against the Edema than indomethacin applied dermally or orally"},
      {"measurement": "Activity applied dermally compared with orally for a given dose", "setting": "[1]; comparative study", "result": "about as active applied dermally as it was orally for a given dose"},
      {"measurement": "% Block", "setting": "[2]; 0.01 wt. % in 50 μl cream", "result": 0, "unit": "%"},
      {"measurement": "% Block", "setting": "[2]; 0.032 wt. % in 50 μl cream", "result": 20, "unit": "%"},
      {"measurement": "% Block", "setting": "[2]; 0.10 wt. % in 50 μl cream", "result": 60, "unit": "%"},
      {"measurement": "% Block", "setting": "[2]; 0.32 wt. % in 50 μl cream", "result": 80, "unit": "%"},
      {"measurement": "% Block", "setting": "[2]; 1.0 wt. % in 50 μl cream", "result": 80, "unit": "%"},
      {"measurement": "% Block", "setting": "[2]; 3.16 wt. % in 50 μl cream", "result": 90, "unit": "%"},
      {"measurement": "ED50 as % Concentration of Agent in Cream (95% Confidence Limits)", "setting": "[2]; probit analysis, 95% confidence limits (0.06-0.29)", "result": 0.128, "unit": "%"}
    ]},
    {"smiles": "COc1ccc2c(c1)c(CC(=O)O)c(C)n2C(=O)c1ccc(Cl)cc1", "note": "[indomethacin, reference compound]", "values": [
      {"measurement": "Activity applied dermally compared with orally for a given dose", "setting": "[1]; comparative study", "result": "markedly less active when applied dermally than when given orally for a given dose"}
    ]},
    {"smiles": "O=C([O-])c1ccccc1O.[Na+]", "note": "[sodium salicylate]", "values": [
      {"measurement": "Skin permeation compared with salicylic acid", "setting": "[3]", "result": "permeates poorly compared with salicylic acid"}
    ]}
  ]
}
